The values below come from article PMC4522657, “Identification of a DYRK1A Inhibitor that Induces Degradation of the Target Kinase using Co-chaperone CDC37 fused with Luciferase nanoKAZ” (Scientific Reports, 2015).

The target of assay [1] is T1, MLK2_Cascade (Homo sapiens, UniProt Q02779).
T1 construct: purchased Carna Biosciences
In words: Kinase panel, CaNDY 1 µM. To be noted: CaNDY 1 µM relative to DMSO. In kind it is biochemical.

The target of assay [2] is T2, PAK6 (Homo sapiens, UniProt Q9NQU5).
T2 construct: purchased Carna Biosciences
In words: Kinase panel, CaNDY 1 µM. In kind it is biochemical. To be noted: CaNDY 1 µM relative to DMSO.

For assay [3], the target named is T3, CK1γ2 (Homo sapiens, UniProt P78368).
T3 construct: purchased Carna Biosciences
As to the kind of experiment: Kinase panel, CaNDY 1 µM. To be noted: CaNDY 1 µM relative to DMSO. In kind it is biochemical.

Assay [4] deals with T4, PLK1 (Homo sapiens, UniProt P53350).
T4 construct: purchased Carna Biosciences
In words: Kinase panel, CaNDY 1 µM. In kind it is biochemical. To be noted: CaNDY 1 µM relative to DMSO.

For assay [5], the target named is T5, IRR (Homo sapiens, UniProt P14616).
T5 construct: purchased Carna Biosciences
As to the kind of experiment: Kinase panel, CaNDY 1 µM. In kind it is biochemical. To be noted: CaNDY 1 µM relative to DMSO.

Assay [6] has as its target T6, PDHK2 (Homo sapiens, UniProt Q15119).
T6 construct: purchased Carna Biosciences
As to the kind of experiment: Kinase panel, CaNDY 1 µM. In kind it is biochemical. To be noted: CaNDY 1 µM relative to DMSO.

Assay [7] concerns the target T7, PKCα (Homo sapiens, UniProt P17252).
T7 construct: purchased Carna Biosciences
In words: Kinase panel, CaNDY 1 µM. In kind it is biochemical. To be noted: CaNDY 1 µM relative to DMSO.

The target of assay [8] is T8, KDR (Homo sapiens, UniProt P35968).
T8 construct: purchased Carna Biosciences
In words: Kinase panel, CaNDY 1 µM. To be noted: CaNDY 1 µM relative to DMSO. The format is biochemical.

Assay [9] addresses T9, MSK1 (Homo sapiens, UniProt O75582).
T9 construct: purchased Carna Biosciences
In words: Kinase panel, CaNDY 1 µM. In kind it is biochemical. To be noted: CaNDY 1 µM relative to DMSO.

Assay [10] concerns the target T10, JAK1 (Homo sapiens, UniProt P23458).
T10 construct: purchased Carna Biosciences
As to the kind of experiment: Kinase panel, CaNDY 1 µM. The format is biochemical. To be noted: CaNDY 1 µM relative to DMSO.

Assay [11] has as its target T11, p38γ (Homo sapiens, UniProt P53778).
T11 construct: purchased Carna Biosciences
In words: Kinase panel, CaNDY 1 µM. In kind it is biochemical. To be noted: CaNDY 1 µM relative to DMSO.

Assay [12] concerns the target T12, MAP3K5_Cascade (Homo sapiens, UniProt Q99683).
T12 construct: purchased Carna Biosciences
In words: Kinase panel, CaNDY 1 µM. The format is biochemical. To be noted: CaNDY 1 µM relative to DMSO.

Assay [13] concerns the target CLK1 (Homo sapiens, UniProt P49759). In words: Western blot of target kinase expression in HEK293 cells. Set-up: endogenous in cells; host or cells: HEK293. In kind it is cell-based. To be noted: CaNDY 2 μM, 4 days. On the procedure: (§1) To check selectivity of CaNDY for other kinases, we first examined protein expression of several kinases in HEK293 cells treated with CaNDY (2 μM) for 4 days. […] Third, protein expression of these kinases targeted by CaNDY (DYRK1A, DYRK1B, CLK1, and Haspin) was reassessed by Western blot analysis as performed in Fig. 7b.
(§2) Western blot analysis was performed using the antibodies described above. In brief, total cell lysates were separated by SDS-PAGE (5–20% gels; ATTO, Tokyo, Japan) under reducing conditions and then transferred to a PVDF membrane (PALL, SP, Brazil). Antibody reactions were performed with Can Get Signal® Immunoreaction Enhancer Solution (Toyobo). Peroxidase activities on the membrane were visualized with ECL Western Blotting Detection Reagents (GE Healthcare) or ImmunoStar® LD (Wako Pure Chemical Industries, Osaka, Japan), and a ChemiDoc^TM MP Imaging System (Bio-Rad, Hercules, CA, USA).
(In general: In western blotting, separated proteins are transferred to a membrane and probed.)

Assay [14] addresses T13, Haspin (Homo sapiens, UniProt Q8TF76).
T13 sequence (Q8TF76 1-798): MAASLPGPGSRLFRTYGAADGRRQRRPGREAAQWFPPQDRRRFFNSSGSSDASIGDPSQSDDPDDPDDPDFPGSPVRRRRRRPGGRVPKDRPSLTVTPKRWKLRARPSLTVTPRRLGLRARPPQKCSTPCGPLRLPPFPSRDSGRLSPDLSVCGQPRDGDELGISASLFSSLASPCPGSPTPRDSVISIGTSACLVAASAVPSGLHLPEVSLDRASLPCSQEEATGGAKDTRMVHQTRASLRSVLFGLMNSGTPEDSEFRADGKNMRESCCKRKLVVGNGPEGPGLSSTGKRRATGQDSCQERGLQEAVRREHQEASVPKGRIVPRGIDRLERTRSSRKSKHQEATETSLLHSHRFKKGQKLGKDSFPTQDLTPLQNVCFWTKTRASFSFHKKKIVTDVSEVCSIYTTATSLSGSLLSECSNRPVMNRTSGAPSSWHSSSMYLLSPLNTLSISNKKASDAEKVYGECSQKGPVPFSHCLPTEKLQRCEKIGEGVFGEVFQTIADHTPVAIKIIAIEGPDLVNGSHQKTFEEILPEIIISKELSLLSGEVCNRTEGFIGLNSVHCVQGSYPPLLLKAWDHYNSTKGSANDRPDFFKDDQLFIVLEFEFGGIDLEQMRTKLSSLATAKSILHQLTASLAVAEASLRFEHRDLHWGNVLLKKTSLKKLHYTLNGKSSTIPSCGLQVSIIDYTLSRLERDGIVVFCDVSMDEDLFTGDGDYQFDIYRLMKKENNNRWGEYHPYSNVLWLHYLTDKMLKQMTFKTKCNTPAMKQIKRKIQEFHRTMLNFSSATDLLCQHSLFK
The description is as above. In kind it is cell-based. Further details: endogenous in cells; host or cells: HEK293. To be noted: CaNDY 2 μM, 4 days. On the procedure: as §1, §2

Assay [15] has as its target DYRK1B (Homo sapiens, UniProt Q9Y463). The assay is described as above. The format is cell-based. Set-up: endogenous in cells; host or cells: HEK293. To be noted: CaNDY 2 μM, 4 days. On the procedure:
as §1, §2

The target in assay [16] is T14, RET (Homo sapiens, UniProt P07949).
T14 construct: purchased Carna Biosciences
In words: Kinase panel, CaNDY 1 µM. The format is biochemical. To be noted: CaNDY 1 µM relative to DMSO.

In assay [17] the target is T15, TRKA (Homo sapiens, UniProt P04629).
T15 construct: purchased Carna Biosciences
As to the kind of experiment: Kinase panel, CaNDY 1 µM. In kind it is biochemical. To be noted: CaNDY 1 µM relative to DMSO.

T14 sequence (P07949 29-1114): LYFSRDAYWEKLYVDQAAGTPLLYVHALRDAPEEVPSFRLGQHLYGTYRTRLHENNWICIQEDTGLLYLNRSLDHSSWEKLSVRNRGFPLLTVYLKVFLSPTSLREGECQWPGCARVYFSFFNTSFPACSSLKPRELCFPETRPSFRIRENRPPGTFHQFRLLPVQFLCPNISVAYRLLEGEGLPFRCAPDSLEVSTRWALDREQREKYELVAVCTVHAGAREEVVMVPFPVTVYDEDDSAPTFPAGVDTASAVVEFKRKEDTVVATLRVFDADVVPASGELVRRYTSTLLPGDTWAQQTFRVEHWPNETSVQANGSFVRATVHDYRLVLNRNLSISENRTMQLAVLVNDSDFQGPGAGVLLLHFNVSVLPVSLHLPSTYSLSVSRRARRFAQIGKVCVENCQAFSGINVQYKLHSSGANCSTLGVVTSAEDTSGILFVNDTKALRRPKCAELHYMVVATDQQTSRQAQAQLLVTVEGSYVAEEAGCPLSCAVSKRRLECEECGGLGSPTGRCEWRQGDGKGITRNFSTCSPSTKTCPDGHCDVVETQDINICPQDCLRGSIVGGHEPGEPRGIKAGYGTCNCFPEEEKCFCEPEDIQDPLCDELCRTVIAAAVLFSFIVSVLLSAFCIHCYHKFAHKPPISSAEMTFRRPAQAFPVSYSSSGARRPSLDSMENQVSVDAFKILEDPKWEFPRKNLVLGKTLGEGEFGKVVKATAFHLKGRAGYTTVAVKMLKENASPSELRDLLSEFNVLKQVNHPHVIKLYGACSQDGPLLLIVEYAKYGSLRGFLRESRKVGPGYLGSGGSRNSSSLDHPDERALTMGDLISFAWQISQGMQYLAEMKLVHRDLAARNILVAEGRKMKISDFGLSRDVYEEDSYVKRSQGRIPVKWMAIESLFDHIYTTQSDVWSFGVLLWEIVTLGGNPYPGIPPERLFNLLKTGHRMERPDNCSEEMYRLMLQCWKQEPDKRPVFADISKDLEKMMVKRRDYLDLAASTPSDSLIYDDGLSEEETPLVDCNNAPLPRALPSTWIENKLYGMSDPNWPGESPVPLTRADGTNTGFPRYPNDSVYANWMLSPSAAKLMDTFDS
T4 sequence (P53350 whole entry): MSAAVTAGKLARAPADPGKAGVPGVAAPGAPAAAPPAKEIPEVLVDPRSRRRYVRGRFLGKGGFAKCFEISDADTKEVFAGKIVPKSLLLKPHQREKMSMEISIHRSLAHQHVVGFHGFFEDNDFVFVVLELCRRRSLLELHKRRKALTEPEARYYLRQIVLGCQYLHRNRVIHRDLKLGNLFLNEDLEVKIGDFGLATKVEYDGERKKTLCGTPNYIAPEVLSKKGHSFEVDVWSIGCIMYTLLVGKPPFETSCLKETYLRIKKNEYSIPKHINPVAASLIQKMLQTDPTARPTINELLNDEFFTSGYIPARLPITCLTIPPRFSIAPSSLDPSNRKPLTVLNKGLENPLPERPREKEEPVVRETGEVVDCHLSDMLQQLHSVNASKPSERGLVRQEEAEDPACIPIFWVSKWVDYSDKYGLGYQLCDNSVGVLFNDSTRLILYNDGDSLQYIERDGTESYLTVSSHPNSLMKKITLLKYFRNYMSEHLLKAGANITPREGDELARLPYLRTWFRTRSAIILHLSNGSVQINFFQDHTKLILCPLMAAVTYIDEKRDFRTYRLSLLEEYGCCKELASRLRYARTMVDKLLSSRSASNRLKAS
T11 sequence (P53778 whole entry): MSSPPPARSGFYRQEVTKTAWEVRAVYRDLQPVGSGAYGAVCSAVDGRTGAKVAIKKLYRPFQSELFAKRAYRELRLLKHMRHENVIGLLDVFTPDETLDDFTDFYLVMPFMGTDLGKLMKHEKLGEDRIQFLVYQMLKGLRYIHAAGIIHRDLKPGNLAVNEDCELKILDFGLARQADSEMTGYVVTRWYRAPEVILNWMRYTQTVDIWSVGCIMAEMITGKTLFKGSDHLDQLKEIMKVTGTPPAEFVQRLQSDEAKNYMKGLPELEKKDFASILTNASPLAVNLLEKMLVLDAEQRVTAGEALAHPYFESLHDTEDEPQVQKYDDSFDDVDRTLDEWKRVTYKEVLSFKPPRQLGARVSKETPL
T12 sequence (Q99683 whole entry): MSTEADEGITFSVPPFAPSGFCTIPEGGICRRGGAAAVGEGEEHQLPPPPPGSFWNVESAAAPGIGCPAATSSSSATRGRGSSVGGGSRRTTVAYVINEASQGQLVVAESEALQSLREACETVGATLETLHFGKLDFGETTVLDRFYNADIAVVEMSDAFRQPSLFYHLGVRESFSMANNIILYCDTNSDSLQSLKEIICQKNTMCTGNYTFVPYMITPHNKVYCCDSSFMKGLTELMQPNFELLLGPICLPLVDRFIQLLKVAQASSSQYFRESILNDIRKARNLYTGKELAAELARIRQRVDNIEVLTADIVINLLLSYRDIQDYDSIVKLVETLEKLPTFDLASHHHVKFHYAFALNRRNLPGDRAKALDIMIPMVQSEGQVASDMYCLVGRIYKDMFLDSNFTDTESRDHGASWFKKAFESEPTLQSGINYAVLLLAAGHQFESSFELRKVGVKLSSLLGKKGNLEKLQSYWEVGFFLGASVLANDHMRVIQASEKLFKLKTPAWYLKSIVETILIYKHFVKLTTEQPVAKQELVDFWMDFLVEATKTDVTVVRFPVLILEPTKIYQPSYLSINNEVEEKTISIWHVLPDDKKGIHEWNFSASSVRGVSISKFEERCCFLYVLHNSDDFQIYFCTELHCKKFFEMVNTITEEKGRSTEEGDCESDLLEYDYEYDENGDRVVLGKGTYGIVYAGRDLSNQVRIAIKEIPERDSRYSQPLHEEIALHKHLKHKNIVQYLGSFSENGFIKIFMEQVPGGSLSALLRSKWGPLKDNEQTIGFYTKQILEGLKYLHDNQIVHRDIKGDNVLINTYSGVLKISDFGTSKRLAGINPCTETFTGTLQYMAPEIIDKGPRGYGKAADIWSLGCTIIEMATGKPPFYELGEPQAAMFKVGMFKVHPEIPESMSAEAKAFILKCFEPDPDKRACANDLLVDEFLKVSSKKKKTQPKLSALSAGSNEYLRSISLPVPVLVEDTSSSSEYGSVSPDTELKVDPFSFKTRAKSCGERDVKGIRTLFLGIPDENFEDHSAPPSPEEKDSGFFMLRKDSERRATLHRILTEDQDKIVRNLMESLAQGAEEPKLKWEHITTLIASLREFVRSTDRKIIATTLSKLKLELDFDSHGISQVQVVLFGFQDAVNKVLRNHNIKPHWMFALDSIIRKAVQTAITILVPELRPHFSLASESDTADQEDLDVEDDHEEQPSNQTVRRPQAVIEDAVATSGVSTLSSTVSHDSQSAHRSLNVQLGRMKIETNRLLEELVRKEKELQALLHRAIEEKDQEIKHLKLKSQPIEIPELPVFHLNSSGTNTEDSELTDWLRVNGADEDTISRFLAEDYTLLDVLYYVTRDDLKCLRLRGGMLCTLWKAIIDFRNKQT
T8 sequence (P35968 20-1356): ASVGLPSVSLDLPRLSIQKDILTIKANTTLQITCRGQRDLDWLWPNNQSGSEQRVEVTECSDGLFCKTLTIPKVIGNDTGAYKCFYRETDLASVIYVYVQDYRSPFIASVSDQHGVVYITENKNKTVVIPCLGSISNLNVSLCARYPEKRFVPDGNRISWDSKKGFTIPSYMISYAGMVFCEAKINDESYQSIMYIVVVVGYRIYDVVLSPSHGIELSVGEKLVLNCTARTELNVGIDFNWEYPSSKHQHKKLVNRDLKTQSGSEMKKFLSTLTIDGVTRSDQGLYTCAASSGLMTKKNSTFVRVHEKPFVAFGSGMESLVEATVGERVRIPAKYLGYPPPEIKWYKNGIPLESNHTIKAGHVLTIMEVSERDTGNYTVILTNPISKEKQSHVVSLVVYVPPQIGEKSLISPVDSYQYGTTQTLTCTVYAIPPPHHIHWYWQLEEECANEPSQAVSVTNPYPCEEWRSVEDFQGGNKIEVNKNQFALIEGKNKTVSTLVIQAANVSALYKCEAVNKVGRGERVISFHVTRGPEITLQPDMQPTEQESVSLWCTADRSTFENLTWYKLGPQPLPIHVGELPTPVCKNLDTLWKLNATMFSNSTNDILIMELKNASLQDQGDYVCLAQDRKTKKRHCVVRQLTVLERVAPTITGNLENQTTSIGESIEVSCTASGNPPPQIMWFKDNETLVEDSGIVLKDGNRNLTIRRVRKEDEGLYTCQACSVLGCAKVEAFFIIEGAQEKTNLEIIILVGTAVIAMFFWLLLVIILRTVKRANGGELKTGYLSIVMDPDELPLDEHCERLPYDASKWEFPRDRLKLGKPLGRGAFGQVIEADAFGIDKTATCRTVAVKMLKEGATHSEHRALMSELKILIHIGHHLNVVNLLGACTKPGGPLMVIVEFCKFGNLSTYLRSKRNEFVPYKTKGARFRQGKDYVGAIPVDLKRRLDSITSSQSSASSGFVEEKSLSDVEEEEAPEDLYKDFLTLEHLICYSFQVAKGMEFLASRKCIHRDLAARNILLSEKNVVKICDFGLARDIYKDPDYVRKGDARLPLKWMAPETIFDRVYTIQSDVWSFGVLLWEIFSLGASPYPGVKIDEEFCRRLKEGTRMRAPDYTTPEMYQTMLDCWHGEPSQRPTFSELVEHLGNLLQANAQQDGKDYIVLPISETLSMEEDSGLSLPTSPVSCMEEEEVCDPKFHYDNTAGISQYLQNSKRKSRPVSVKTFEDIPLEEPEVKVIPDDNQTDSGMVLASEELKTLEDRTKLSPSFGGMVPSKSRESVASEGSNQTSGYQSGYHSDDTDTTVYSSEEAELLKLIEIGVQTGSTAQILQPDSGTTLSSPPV

The term remaining activity denotes the signal under treatment as a percentage of the control signal. For `[H]/N=C1/NC(=O)C(=Cc2ccc3c(c2)CCO3)S1` [CaNDY, (Z)-5-[(2,3-dihydrobenzofuran-5-yl)methylene]-2-iminothiazolidin-4-one], the remaining activity at 1 µM in assay [1] was found to be 124%; in assay [2], 101%; in [4] it was 99.2%; in [5], 103%; in assay [6], 91.6%; in [7], 82.4%. Also, the remaining activity at 1 µM in assay [8] is 102%; in assay [9] it was 98.1%; in assay [11] it was 91.4%; in [12], 103%; in [16], 102%; in [17], 101%. Besides, the “%Activity” value in assay [3] is given as 75.4%; in assay [10] it was 96.9%. Further, the “protein expression of CLK1” value in [13] was “decreased expression”. The “protein expression of Haspin” value in assay [14] is listed as “decreased expression”. Also, in assay [15], the “protein expression of DYRK1B” value is “decreased expression”.
